Values quoted from earlier work in patent publication US20110004098A1, “ESTER IMAGING AGENTS” (priority 2008, published 2011).

Test system: bladder carcinoma in situ
Details: cystoscopy with Hexvix, as opposed to 58% with white light cystoscopy

SMILES: CCCCCCOC(=O)CCC(=O)CN.Cl [Hexvix, n-hexyl 5-aminolevulinate hydrochloride]
- sensitivity of detecting bladder carcinoma in situ: 97%
